Experiment [1] has as its system rats. To be noted: sub-chronic treatment with PCP; cited from earlier work.
Experiment [2] concerns the target human PDE10A (Homo sapiens (Human), UniProt Q9Y233). The experiment in a line: human PDE10A full length Scintillation Proximity Assay (SPA). The experiment is classed as biochemical. To be noted: 50 nM cGMP and 50 nM [3H]-cGMP, 20 minutes at room temperature. The procedure: The following test was carried out in order to determine the activity of the compounds of the present invention. PDE10 activity of the compounds of the present invention was determined using a Scintillation Proximity Assay (SPA)-based method similar to the one previously described (Fawcett, L. et al., ProcNatl Acad Sci USA (2000) 97(7):3702-3707).
The human PDE10A full length assay was performed in 96-well micro titer plates. The reaction mixture of 50 μl contained 20 mM HEPES pH=7.5/10 mM MgCl2/0.05 mg/ml BSA (Sigma cat. # A-7906), 50 nM cGMP (Sigma, cat. # G6129) and 50 nM [3H]-cGMP (GE Healthcare, cat. # TRK392 S. A. 13.2 Ci/mmol), 3.75 ng/well PDE10A enzyme (Enzo Life Science, Lausen, Switzerland cat # SE-534) with or without a specific test compound. A range of concentrations of the potential inhibitor was used to generate data for calculating the concentration of inhibitor resulting in 50% of the effect (e.g. IC50, the concentration of the competitor inhibiting PDE10A activity by 50%). Non-specific activity was tested without the enzyme. The reaction was initiated by the addition of the substrate solution (cGMP and [3H]-cGMP) and allowed to progress for 20 minutes at room temperature. The reaction was terminated by adding 25 μl of YSi-SPA scintillation beads (GE Healthcare, cat. # RPNQ0150) in 18 mM zinc sulphate solution (stop reagent). After 1 h under shaking, the plate was centrifuged one minute at 170 g to allow beads to settle. Afterwards, radioactive counts were measured on a Perkin Elmer TopCount Scintillation plate reader.

Sequence of human PDE10A (Q9Y233 other isoform, or with tags, fused parts or gaps): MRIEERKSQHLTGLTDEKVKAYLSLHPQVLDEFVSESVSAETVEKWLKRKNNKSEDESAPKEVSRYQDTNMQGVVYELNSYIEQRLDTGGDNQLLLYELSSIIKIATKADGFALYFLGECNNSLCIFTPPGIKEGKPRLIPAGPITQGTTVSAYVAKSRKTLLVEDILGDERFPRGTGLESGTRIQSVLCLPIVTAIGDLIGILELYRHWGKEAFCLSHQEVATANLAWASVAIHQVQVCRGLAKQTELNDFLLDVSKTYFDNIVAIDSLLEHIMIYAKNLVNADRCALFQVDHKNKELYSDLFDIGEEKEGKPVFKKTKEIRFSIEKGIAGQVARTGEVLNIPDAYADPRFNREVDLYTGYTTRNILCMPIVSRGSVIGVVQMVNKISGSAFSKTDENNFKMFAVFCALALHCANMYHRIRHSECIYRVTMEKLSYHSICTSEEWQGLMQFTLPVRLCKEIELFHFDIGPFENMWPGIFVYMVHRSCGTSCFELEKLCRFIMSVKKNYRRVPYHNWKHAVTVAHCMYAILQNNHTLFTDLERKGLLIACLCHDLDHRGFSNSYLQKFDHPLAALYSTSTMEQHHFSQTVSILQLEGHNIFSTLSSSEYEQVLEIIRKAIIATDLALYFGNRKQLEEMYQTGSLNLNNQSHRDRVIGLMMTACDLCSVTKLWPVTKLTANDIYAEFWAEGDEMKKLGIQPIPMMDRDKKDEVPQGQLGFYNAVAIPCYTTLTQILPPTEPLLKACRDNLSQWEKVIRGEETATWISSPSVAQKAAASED

Turning to `COc1ccc(Cc2nccc3cc(OC)c(OC)cc23)cc1OC` [papaverine, Papaverine], in experiment [1], the “deficits in the extra-dimensional shift learning” value was “attenuate the deficits”. With `Cc1nc2ccc(CCc3nc(-c4ccnnc4)cn3C)nn2c1C` [Example 28, 2,3-Dimethyl-6-(2-(1-methyl-4-(pyridazin-4-yl)-1H-imidazol-2-yl)ethyl)imidazo[1,2-b]pyridazine], the IC50 (as a rule, the concentration that inhibits the measured activity by half) in experiment [2] worked out at 81.2 nM.

On to `Cc1cc(CCc2nc(-c3ccccn3)cn2C)nn2c(C)c(C(F)(F)F)nc12` [Example 30, 3,8-Dimethyl-6-(2-(1-methyl-4-(pyridin-2-yl)-1H-imidazol-2-yl)ethyl)-2-(trifluoromethyl)imidazo[1,2-b]pyridazine], for which, in experiment [2], half-maximal inhibition (IC50) was put at 3.7 nM. `Cn1cc(-c2ccccc2)nc1CCc1ccc2nc(C(F)(F)F)cn2n1` [Example 20, 6-(2-(1-Methyl-4-phenyl-1H-imidazol-2-yl)ethyl)-2-(trifluoromethyl)imidazo[1,2-b]pyridazine] registered an IC50 in experiment [2] of 82.8 nM. On the same count and under the same terms, to `Cc1c(C(F)F)nc2ccc(CCc3nc(-c4ccccc4)cn3C)nn12` [Example 19, 2-(Difluoromethyl)-3-methyl-6-(2-(1-methyl-4-phenyl-1H-imidazol-2-yl)ethyl)imidazo[1,2-b]pyridazine] belongs 6.4 nM; to `Cc1nn2ccc(CCc3nc(-c4ccccc4)cn3C)nc2c1C` [Example 16, 2,3-Dimethyl-5-(2-(1-methyl-4-phenyl-1H-imidazol-2-yl)ethyl)pyrazolo[1,5-a]pyrimidine], 2.4 nM. Regarding `Cn1cc(-c2ccccc2)nc1C#Cc1ccc2nc(C(F)(F)F)cn2n1` [Example 8, 6-(1-Methyl-4-phenyl-1H-imidazol-2-ylethynyl)-2-trifluoromethyl-imidazo[1,2-b]pyridazine], half-maximal inhibition in experiment [2] (IC50) required 1 nM. On the same count and under the same terms, the figure for `Cc1nc2ccc(CCc3nc(-c4ncccn4)cn3C)nn2c1C` [Example 23, 2,3-Dimethyl-6-(2-(1-methyl-4-(pyrimidin-2-yl)-1H-imidazol-2-yl)ethyl)imidazo[1,2-b]pyridazine] is 9.2 nM.

Source of the values: patent US10399985B2, “(Hetero)aryl imidazoles/pyrazoles for treatment of neurological disorders” (Hoffmann-La Roche Inc., priority 2014, dated 2019).
